According to patent publication US10392398B2, “Inhibitors of Late SV40 Factor (LSF) as cancer chemotherapeutics” (TRUSTEES OF BOSTON UNIVERSITY, priority 2010, dated 2019):

How the values were obtained:
LBP1a/b = assay: Cellular Thermal Shift Assay (CETSA), LBP1a/b; format: binding; conditions: QGY-7703 lysate, 500 μM
Protocol: (§1) Drug-target engagement was assessed using CETSA as described by Molina et al. (Monitoring Drug-Target Engagement in Cells and Tissues Using Cellular Thermal Shift Assay. Science (2013) 341, 84-87). QGY-7703 cells were cultured at 37° C. in 5% CO2 in DMEM (Dulbecco's modification of Eagle's Medium; Corning) supplemented with 10% Fetal Bovine Serum (FBS; Invitrogen). Cells were seeded into 10 cm plates and allowed to reach 60-80% confluency. After trypsinization (0.05% Trypsin-EDTA, Invitrogen), cell pellet was washed twice with ice-cold 1×PBS (137 mM NaCl, 2.7 mM KCl, 10 mM Na2HPO4, 2 mM KH2PO4, pH 7.2). Cell pellet was lysed by addition of 200 μL freshly prepared ice-cold RIPA buffer (10 mM Tris-Cl pH 8.0, 1 mM EDTA, 0.5 mM EGTA, 1% Triton X-100, 0.1% sodium deoxycholate, 0.1% SDS, 140 mM NaCl) supplemented with 1 mM Pefabloc (Sigma-Aldrich), and flash frozen in liquid nitrogen and thawed for a total of three cycles. Cell lysate was centrifuged at 20,000×g for 20 minutes to clarify. Supernatant was either treated immediately or saved at −80° C. for future use. […]
(§2) Immunoblots were quantified using Image J and graphed using GraphPad PRISM. Area-under-the-curve (AUC) for the quantified western blots were calculated with GraphPad PRISM and non-parametric t-test was calculated to determine statistical significance between the curves. […]

GRHL1 = target: T1, GRHL1 (Homo sapiens, UniProt Q9NZI5); assay: Cellular Thermal Shift Assay (CETSA), GRHL1; format: binding; conditions: QGY-7703 lysate, 500 μM
T1 construct: endogenous in cells; host or cells: QGY-7703 cell lysate
T1 sequence (Q9NZI5 1-618): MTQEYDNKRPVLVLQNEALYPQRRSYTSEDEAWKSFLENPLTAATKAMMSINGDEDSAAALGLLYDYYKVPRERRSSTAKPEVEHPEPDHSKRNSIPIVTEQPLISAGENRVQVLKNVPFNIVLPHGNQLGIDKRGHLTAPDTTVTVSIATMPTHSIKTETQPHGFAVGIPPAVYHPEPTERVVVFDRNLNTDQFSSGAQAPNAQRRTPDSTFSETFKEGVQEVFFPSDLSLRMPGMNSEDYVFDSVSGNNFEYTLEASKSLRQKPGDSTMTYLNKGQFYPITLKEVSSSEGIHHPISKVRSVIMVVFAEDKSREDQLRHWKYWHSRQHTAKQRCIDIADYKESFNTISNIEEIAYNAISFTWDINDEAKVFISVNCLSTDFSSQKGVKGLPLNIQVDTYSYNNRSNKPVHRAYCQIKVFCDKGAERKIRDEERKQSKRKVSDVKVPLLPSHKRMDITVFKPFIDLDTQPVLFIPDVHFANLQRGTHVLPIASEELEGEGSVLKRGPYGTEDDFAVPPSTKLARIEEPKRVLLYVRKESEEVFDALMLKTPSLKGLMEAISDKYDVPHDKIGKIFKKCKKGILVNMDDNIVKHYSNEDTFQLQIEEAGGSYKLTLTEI
Protocol: as §1, §2

USF = assay: USF-dependent reporter assay; format: cell-based
Protocol: USF-dependent reporter assays were performed with FQI1 only. Averages with standard deviation (SD) derive from 3-4 independent experiments. […] “−LSF”: translation extract with no programmed LSF. […] Myc-LSF-HA expression was induced with the small molecule inducer RSL1. In induced cells, FQI1 or vehicle was added for the final 12 h of myc-LSF-HA induction.

QGY-7703 HCC cells = assay: HCC cell viability (MTT), QGY-7703; format: cell-based
Protocol: Cells were plated at 3×10^4 cells/mL, A549 and HeLa, and 1×10^4 cells/mL, NIH/3T3, in 96-well plates and incubated for 24 h to allow for cell adhesion. LSF-library compounds were dissolved in DMSO, serial diluted in appropriate medium and added to cells in triplicate (2 plates). DMSO was added to control wells at a final concentration of 1%. After 72 h incubation in the presence of compound, confluent cells were assayed for growth proliferation with CellTiter 96® AQueous One Solution Cell Proliferation Assay (MTS) (Promega) according to the manufacturer's protocol. Plates were read at 490 nm on a microplate reader, and IC50 values were determined as the percentage of compound-treated cell growth to control cell growth. HCC cells—one hour after plating HCC cells onto 96-well plates, compound or vehicle (DMSO) was added to the desired concentrations, keeping DMSO at 0.5%. At indicated time points, cell viability was assayed using the CellTiter 96® Non-Radioactive Cell Proliferation Assay (MTT) (Promega).

HepG3 cells = assay: TUNEL apoptosis assay, HepG3; format: cell-based; conditions: same conditions as QGY-7703
Protocol: HCC cells were plated 24 h prior to incubation with FQI1. At the indicated time points, cells were analyzed using the FragEL™ DNA fragmentation kit (Calbiochem) according to the manufacturer's protocol. Flow cytometry was performed using a FACS caliber (Becton Dickinson) and analyzed with Cell Quest software.

[1] = rats, single IV dose, 50 mg/mL dose level as printed

Protocol for Rat tolerability: The purpose of the study was to determine the tolerability of FQI-34 in rats as administered by IV at 3 dose levels-5, 15, and 50 mg/kg. FQI-34 was formulated in 20% DMSO/50% PEG-400/30% saline, and administered by IV at 5 mL/kg for compound or 10 mL/kg for vehicle alone. 6 rats per dose arm were used (3 male and 3 female), with single dose administration with monitoring over 14 days. Gross necropsy was performed at the end of the study.

## CCOc1cc(N(C)C)ccc1C1CC(=O)Nc2cc3c(cc21)OCO3 (stereo not shown) [FQI-34, 8-(4-(dimethylamino)-2-ethoxyphenyl)-7,8-dihydro-[1,3]dioxolo[4,5-g]quinolin-6(5H)-one]
LBP1a/b
  binding to LBP1a/b by CETSA: directly binds
GRHL1
  binding to GRHL1 by CETSA: does not bind
Rat tolerability; end of study, 14 days after single IV dose of 5, 15 or 50 mg/kg
  gross necropsy: no abnormal findings
Rat tolerability; excluding the male rat B, 5, 15 and 50 mg/kg IV, 14 days
  condition of all rats for duration of study: within normal limits
Rat tolerability; rats, single IV dose, 15 mg/mL dose as printed, 14 days
  observations in all other rats at this dose level: remained normal throughout the study
Rat tolerability; rats, single IV dose, 15 mg/mL dose as printed, believed to be due to stress and not compound related
  mortality: Male Rat B died
Rat tolerability; [1]
  observations upon dosing: pronation, increased respiratory rate, and decreased activity
  time until rats returned to normal: ≤ 30 min

## CCOc1ccccc1C1CC(=O)Nc2cc3c(cc21)OCO3 (racemic) [FQI1, 8-(2-ethoxyphenyl)-7,8-dihydro-[1,3]dioxolo[4,5-g]quinolin-6(5H)-one]
USF
  transactivation of a USF-dependent reporter by USF: unaffected
QGY-7703 HCC cells; QGY-7703, 20 μM thymidine
  effect of exogenous thymidine on treated cell viability profiles: not affected
QGY-7703 HCC cells; QGY-7703, between 24 and 48 hours
  concentration at which decrease in HCC cell viability was observable: 2 µM
QGY-7703 HCC cells; in words
  cellular proliferation of QGY-7703 cells (MTT): decreased overall cellular proliferation
HepG3 cells
  TUNEL positivity of HepG3 cells: not TUNEL-positive
